Tested on: Hamster pancreatic β cell strain HIT-T15 cells
Test: Action of promoting insulin secretion (Test Example 1)
Format: cell-based
Details: Mesocricetus auratus, glucose 2 mM, 1 hour at 37° C., insulin in the supernatant, 0.0001 μM to 10 μM, read-out: EC50 (50% effect concentration, insulin secretion)
Experimental: Action of Promoting Insulin Secretion
Hamster pancreatic β cell strain HIT-T15 cells were subcultured by using a Ham's F-12K culture medium containing penicillin (100 unit/mL), streptomycin (100 μg/mL) and 10% fetal bovine serum. The cells were sown on a 24-well cell culture plate, cultured at 37° C. for 48 hours, and washed with a 0.10 albumin KRBH buffer. Subsequently, the cells were allowed to stand in the same buffer at 37° C. for 1 hour. Glucose was added thereto so as to give a final concentration of 2 mM, and the compound of the present invention that had been dissolved in dimethylsulfoxide at a concentration of 1.000-fold of the respective concentrations (from 0.0001 μM to 10 μM at a common ratio of 10) was further added under a condition that the compound was included in an amount of 0.1 volume % in the buffer. After the addition of the compound of the present invention, the cells were allowed to stand at 37° C. for 1 hour, and the concentration of the insulin included in the supernatant was measured by an insulin kit (SCETI Medical Labo K. K.). A hamster insulin standard solution (SHIBAYAGI Co., Ltd.) was used as a standard solution. A control to which only dimethylsulfoxide had been added was used. The results are shown in Table 8 as the 50% effect concentrations (EC50 values, 50% effect concentrations)) of the respective subject compounds. The EC50 values were calculated by using a statistical analysis program, SAS Pre-Clinical Package Ver 5.0 (SAS institute Japan Co., Tokyo).

Row | EC50 | Structure (SMILES)
1 | 4.5 nM | CS(=O)(=O)c1ccc(Nc2ncnc3c(C4CCN(c5ncc(C(F)(F)F)cn5)CC4)coc23)c(F)c1 [Example 31, N-[2-fluoro-4-(methylsulfonyl)phenyl]-7-{1-[5-(trifluoromethyl)pyrimidin-2-yl]piperidin-4-yl}furo[3,2-d]pyrimidine-4-amine]
2 | 15.1 nM | CC(C)(OC(=O)N1CCC(c2coc3c(Nc4ccc(S(C)(=O)=O)cc4F)ncnc23)CC1)C(F)(F)F [Example 33, 1,1,1-trifluoro-2-methylpropan-2-yl 4-(4-{[2-fluoro-4-(methylsulfonyl)phenyl]amino}furo[3,2-d]pyrimidin-7-yl)piperidine-1-carboxylate]
3 | 58.4 nM | CC(C)(C)COC(=O)N1CCC(c2coc3c(Nc4ccc(S(C)(=O)=O)cc4F)ncnc23)CC1 [Example 35, neopentyl 4-(4-{[2-fluoro-4-(methylsulfonyl)phenyl]amino}furo[3,2-d]pyrimidin-7-yl)piperidine-1-carboxylate]
4 | 18.7 nM | CS(=O)(=O)c1ccc(Nc2ncnc3c(C4CCN(C(=O)OCC(Cl)(Cl)Cl)CC4)coc23)c(F)c1 [Example 36, 2,2,2-trichloroethyl 4-(4-{[2-fluoro-4-(methylsulfonyl)phenyl]amino}furo[3,2-d]pyrimidin-7-yl)piperidine-1-carboxylate]
5 | 56.2 nM | CS(=O)(=O)c1ccc(Nc2ncnc3c(C4CCN(C(=O)Oc5ccccc5)CC4)coc23)c(F)c1 [Example 37, phenyl 4-(4-{[2-fluoro-4-(methylsulfonyl)phenyl]amino}furo[3,2-d]pyrimidin-7-yl)piperidine-1-carboxylate]
6 | 10.7 nM | CC(C)(C)OC(=O)N1CCC(c2coc3c(Oc4ccc(S(C)(=O)=O)cc4)ncnc23)CC1 [Example 40, tert-butyl 4-(4-{4-(methylsulfonyl)phenoxy}furo[3,2-d]pyrimidin-7-yl)piperidine-1-carboxylate]
7 | 42.9 nM | CC(C)(C)OC(=O)N1CCC(c2coc3c(Oc4ccc(-n5cnnn5)cc4)ncnc23)CC1 [Example 41, tert-butyl 4-{4-[4-(1H-tetrazol-1-yl)phenoxy]furo[3,2-d]pyrimidin-7-yl}piperidine-1-carboxylate]

The next lines start with the molecule.

Row | Structure (SMILES) | EC50
8 | CC(C)(C)OC(=O)N1CCC(c2coc3c(Nc4ccc(S(C)(=O)=O)cc4F)ncnc23)CC1 [Example 1, Tert-Butyl 4-(4-{[2-fluoro-4-(methylsulfonyl)phenyl]amino}furo[3,2-d]pyrimidin-7-yl)piperidine-1-carboxylate] | 5.3 nM
9 | CS(=O)(=O)c1ccc(Nc2ncnc3c(C4CCN(c5ncc(Cl)cn5)CC4)coc23)c(F)c1 [Example 2, 7-[1-(5-chloropyrimidin-2-yl)piperidin-4-yl]-N-[2-fluoro-4-(methylsulfonyl)phenyl]furo[3,2-d]pyrimidine-4-amine] | 4 nM
10 | CCc1cnc(N2CCC(c3coc4c(Nc5ccc(S(C)(=O)=O)cc5F)ncnc34)CC2)nc1 [Example 3, 7-[1-(5-ethylpyrimidin-2-yl)piperidin-4-yl]-N-[2-fluoro-4-(methylsulfonyl)phenyl]furo[3,2-d]pyrimidine-4-amine] | 14.3 nM
11 | CS(=O)(=O)c1ccc(Nc2ncnc3c(C4CCN(c5ncc(F)cn5)CC4)coc23)c(F)c1 [Example 4, N-[2-fluoro-4-(methylsulfonyl)phenyl]-7-[1-(5-fluoropyrimidin-2-yl)piperidin-4-yl]furo[3,2-d]pyrimidine-4-amine] | 33.1 nM
12 | CS(=O)(=O)c1ccc(Nc2ncnc3c(C4CCN(c5ncc(Br)cn5)CC4)coc23)c(F)c1 [Example 5, 7-[1-(5-bromopyrimidin-2-yl)piperidin-4-yl]-N-[2-fluoro-4-(methylsulfonyl)phenyl]furo[3,2-d]pyrimidine-4-amine] | 12.4 nM
13 | CS(=O)(=O)c1ccc(Nc2ncnc3c(C4CCN(c5ccc(C(F)(F)F)cn5)CC4)coc23)c(F)c1 [Example 6, N-[2-fluoro-4-(methylsulfonyl)phenyl]-7-{1-[5-(trifluoromethyl)pyridin-2-yl]piperidin-4-yl}furo[3,2-d]pyrimidine-4-amine] | 20.5 nM
14 | CS(=O)(=O)c1ccc(Nc2ncnc3c(C4CCN(C(=O)OCc5ccccc5)CC4)coc23)c(F)c1 [Example 7, benzyl 4-(4-{[2-fluoro-4-(methylsulfonyl)phenyl]amino}furo[3,2-d]pyrimidin-7-yl)piperidine-1-carboxylate] | 33.7 nM
15 | CC(C)OC(=O)N1CCC(c2coc3c(Nc4ccc(S(C)(=O)=O)cc4F)ncnc23)CC1 [Example 8, isopropyl 4-(4-{[2-fluoro-4-(methylsulfonyl)phenyl]amino}furo[3,2-d]pyrimidin-7-yl)piperidine-1-carboxylate] | 83.5 nM
16 | CS(=O)(=O)c1ccc(Nc2ncnc3c(C4CCN(S(=O)(=O)C5CC5)CC4)coc23)c(F)c1 [Example 11, 7-[1-(cyclopropylsulfonyl)piperidin-4-yl]-N-[2-fluoro-4-(methylsulfonyl)phenyl]furo[3,2-d]pyrimidine-4-amine] | 76.9 nM
17 | CS(=O)(=O)c1ccc(Nc2ncnc3c(C4CCN(S(=O)(=O)C5CCCCC5)CC4)coc23)c(F)c1 [Example 12, 7-[1-(cyclohexylsulfonyl)piperidin-4-yl]-N-[2-fluoro-4-(methylsulfonyl)phenyl]furo[3,2-d]pyrimidine-4-amine] | 9.1 nM
18 | CC(C)(C)OC(=O)N1CCC(c2coc3c(Oc4ccc(S(C)(=O)=O)c(F)c4)ncnc23)CC1 [Example 21, tert-butyl 4-{4-[3-fluoro-4-(methylsulfonyl)phenoxy]furo[3,2,d]pyrimidin-7-yl}piperidine-1-carboxylate] | 51.9 nM
19 | CC(C)(C)OC(=O)N1CCC(c2coc3c(N4CCc5cc(S(C)(=O)=O)ccc54)ncnc23)CC1 [Example 24, tert-butyl 4-{4-[5-(methylsulfonyl)indolin-1-yl]furo[3,2-d]pyrimidin-7-yl}piperidine-1-carboxylate] | 3.6 nM
20 | CCc1cnc(N2CCC(c3coc4c(N5CCc6cc(S(C)(=O)=O)ccc65)ncnc34)CC2)nc1 [Example 25, 7-[1-(5-ethylpyrimidin-2-yl)piperidin-4-yl]-4-[5-(methylsulfonyl)indolin-1-yl]furo[3,2-d]pyrimidine] | 16.4 nM
21 | CC(C)(C)OC(=O)N1CCC(c2csc3c(Nc4ccc(S(C)(=O)=O)cc4F)ncnc23)CC1 [Example 27, tert-butyl 4-(4-{[2-fluoro-4-(methylsulfonyl)phenyl]amino}thieno[3,2-d]pyrimidin-7-yl)piperidine-1-carboxylate] | 50.7 nM

— US8765771B2, “Condensed pyridine or condensed pyrimidine derivative, and medicinal agent comprising same” (Kowa Co., Ltd., priority 2010, dated 2014)
